Data reported in patent publication US20250129146A1, “COMBINED CANCER THERAPY WITH AN EPITHELIAL CELL ADHESION MOLECULE (EPCAM) INHIBITOR AND A WNT INHIBITOR” (ACADEMIA SINICA, priority 2021, published 2025).
“Also recorded” adds a separate entry of the source.

Columns and labels:
[1] = system: active β-Catenin; assay: Nuclear translocation of β-Catenin (immunofluorescence staining; cell fractionation with western blot); assay type: cell-based, human; conditions: wild-type HCT116 cells; 20 μg/mL EpAb2-6 for 6 h, 400 ng/mL LGK974 for 9 h or combination
Protocol: Cells (1×10^6) were seeded overnight and further allowed to grow in serum free conditions. Then cells were further treated with 20 μg/mL mEpAb2-6 or hEpAb2-6 or MT201 for 6 h or with 400 ng/mL LGK974 (MedChemExpress) for 9 h or combination as indicated. Samples were fractioned into cytosol and nuclear extracts using nuclear/cytosol fractionation kit (Biovision) according to the manufacturer's protocol. The fractions were then subjected to western blot analysis.
(§1) For western blotting, cells were extracted using radioimmunoprecipitation assay (RIPA) buffer [(0.01 M sodium phosphate, pH 7.2), 150 mM NaCl, 2 mM EDTA, 50 mM NaF, 1% Nonidet P-40, 1% sodium deoxycholate, and 0.1% SDS)] containing phosphatase inhibitor (Roche) and protease inhibitor (Roche) cocktail. Equal amounts of protein were separated by SDS-PAGE and then transferred to PVDF membranes. The membranes were blocked with 3% BSA in TBST (Blocking solution) and incubated with necessary primary antibodies in the blocking solution overnight at 4° C. Membranes were then incubated with HRP-conjugated secondary antibodies in the blocking solution for 1 h at room temperature, and protein expression were detected. Antibodies used: anti-α-tubulin (Sigma), anti-EpCAM (abeam), anti-Active β-Catenin (Millipore), anti-total β-Catenin (abeam), anti-Frizzled 6 (CST), anti-Frizzled 7 (Santa Cruz Biotech), anti-LRP5 (abcam), anti-Phospho-LRP5 (abcam), anti-Phospho-LRP6 (CST), anti-LRP6 (CST) and anti-EpEX antibody EpAb3-5 (Produced in house), anti-ADAM17 (abcam), anti-phopho-ADAM17 (abcam), anti-Presenilin2 (abcam), anti-phospho-Presenilin2 (S327) (abcam), anti-phospho-Presenilin2 (S330) (abcam) and anti-Axin2 (CST).
Glass slides were used in 24-well plates and coated with 0.1% gelatin. Further, 3×10^4 cells were seeded in serum free medium overnight. Cells were treated with 20 μg/mL EpAb2-6 for 6 h, or 400 ng/mL LGK974 (MedChemExpress) for 9 h or the combination. Cells were washed using ice-cold PBS and fixed with 4% paraformaldehyde for 15 min at RT and washed with ice-cold PBS. Further, cells were permeabilized using 0.1% triton-X in PBS for 20 min and subsequently washed with PBS. Cells were blocked with 3% BSA in PBS for 1 h at RT. Next, cells were treated with primary antibody anti-Active β-Catenin (Millipore) overnight. Then, cells were washed and treated with secondary antibody in 3% BSA containing PBS along with DAPI for 1 h at RT. Samples were then washed in PBS five times and mounted for microscopy. Nuclear β-Catenin intensities were calculated using IMARIS (Oxford Instruments) software.

[2] = system: HCT116, HT29 and SW620 cells; assay: Tumorsphere assay; assay type: cell-based, human
Protocol: Cells were seeded in ultra-low adherent 6-well plates (5×10^4 cells per well) or 24-well plates (1×10^3 cells per well) and maintained in DMEM/F-12 supplemented with B27. Further, cells were treated with 20 μg/mL mEpAb2-6, hEpAb2-6 or MT201 (Produced in house), or 400 ng/mL LGK974 (MedChemExpress) or the combination, by direct addition to the culture medium. The entire culture medium, including the treatment component, was changed in every other day. Cells were cultured for 10 days, and on 10th day, spheres were counted and photographed under the microscope.

[3] = system: HT29 and SW620 cells; assay: Colony formation assay; assay type: cell-based, human
Protocol: Cells were seeded in 12-well plate (5×10^3 cells per well) and treated with 20 µg/mL mEpAb2-6, hEpAb2-6 or MT201 (Produced in house) or 400 ng/mL LGK974 (MedChemExpress) or combination as indicated in which case the elements were directly added to the culture medium. The medium along with the treatment component were changed in every alternating day and the cells were allowed to grow for 10 days. On the tenth day, cells were washed and fixed with 4% paraformaldehyde and further stained with 1% crystal violet for 30 min. Colonies were washed 3 times with PBS, and images were taken. Furthermore, to measure colony density, the wells were incubated with 0.5% SDS shaking for 2 h at RT. The supernatants were collected, and the absorbance of the solution was taken at 570 nm using a microplate reader.

[4] = system: LRP5/6; assay: Phosphorylation of LRP5/6 (western blot); assay type: cell-based, human; conditions: SW620 cells; LGK974, EpAb2-6 or combined treatment
Protocol: as §1

[5] = system: Wnt receptors (FZD6/7, LRP5/6); assay: Wnt receptor protein and mRNA expression (western blot, qPCR); assay type: cell-based, human; conditions: HCT116 cells; EpAb2-6, LGK974 or combination
Protocol: as §1
(§2) Total RNA was extracted using TRI reagent and 5 μg of the total RNA was further reverse-transcribed using oligo (dT) primer with reverse transcriptase. Quantitative real time RT-PCR (qPCR) was performed on cDNA using the Light Cycler 480 SYBR Green-I Master kit and the LightCycler480 System. The gene expression levels of each sample were normalized to the expression levels of glyceraldehyde 3-phosphate dehydrogenase (GAPDH) or β-actin.

[6] = system: Oct4, Sox2 and c-Myc; assay: Stemness (pluripotency) factor expression (western blot, qPCR); assay type: cell-based, human; conditions: HT29 cells; LGK974, EpAb2-6 or combined treatment
Protocol: as §1, §2

[7] = system: colon cancer cells (SW620, HCT116); assay: Annexin-V/PI apoptosis assay; assay type: cell-based, human; conditions: SW620 and HCT116 cells; 20 μg/mL EpAb2-6, LGK974 or the combination for 24 hrs
Protocol: Cells were seeded in 24-well plate ([…] cells per well) overnight and then treated with 20 μg/mL mEpAb2-6, hEpAb2-6 or MT201, or […] LGK974 (MedChemExpress) or the combination for 24 hrs. Cell pellets were collected, and an apoptosis assay was performed using an Annexin-V/PI apoptosis kit (BD Biosciences). Results were read by flow cytometry analysis percentage apoptotic cells was calculated.

[8] = system: HCT116 cells; assay: Metastatic animal model of human CRC (HCT116 cells via tail vein); assay type: in vivo, NOD/SCID mice
Protocol: (§3) All animal experiments were approved and performed according to the regulations from the IACUC at Academia Sinica. HCT116 cells (1×10^6) were injected via tail vein for the metastatic model. Otherwise, 2×10^5 HCT116 cells with luciferase were surgically transplanted into the cecum wall for the orthotopic model. Male NOD/SCID mice, approximately 6 to 8 weeks old, were used for animal experiments (n=5 and n=6 for each treatment group in metastatic and orthotopic models respectively). At 72-h post-injection/transplantation, mice were randomly distributed into four different treatment groups. For the treatments, animals were injected with 20 mg/kg IgG or EpAb2-6 via tail vein twice a week for four weeks, or fed by oral gavage with either vehicle [0.5% methylcellulose (Sigma-Aldrich) and 0.5% Tween80 (Sigma-Aldrich)] or 5 mg/kg LGK974 (MedChemExpress) formulated with the vehicle on alternating days for four weeks, or animals were treated with the combination of both inhibitor and antibody. For the metastatic model, survival was the main endpoint. For the orthotopic model, tumor progression was monitor using bioluminescence imaging. To image the tumors, intraperitoneal injection of D-Luciferin (GOLD BIO) was performed, and images were taken 10 min post-injection.

[9] = system: HCT116 cells; assay: Orthotopic animal model of human CRC (HCT116 cells with luciferase in cecum wall); assay type: in vivo, NOD/SCID mice
Protocol: as §3

[10] = dose of 5 mg/kg body weight; cited from earlier work
[11] = EpCAM-knockout cells, exogenous EpEX, LGK974 or both

Compound: Cc1cc(-c2ncc(CC(=O)Nc3ccc(-c4cnccn4)cn3)cc2C)ccn1 [LGK974, 2-(2′,3-dimethyl-[2,4′-bipyridin]-5-yl)-N-(5-(pyrazin-2-yl)pyridin-2-yl)acetamide, reference compound]
- nuclear β-Catenin [1]: decreased nuclear D3-Catenin but did not completely clear the protein from the nucleus
- tumorsphere formation [2, 11]: complete loss of ability to form spheres or colonies
- tumorsphere formation ([2]; HCT116 and HT29 cells, 20 μg/mL EpAb2-6, 400 ng/mL LGK974 or combination, 10 days): decreased
- cancer stemness properties ([2]; summary statement, CRC cells, tumorsphere and colony formation): partially attenuate cancer sternness properties
- colony formation [3, 11]: complete loss of ability to form spheres or colonies
- colony formation ([3]; HT29 cells, 20 µg/mL EpAb2-6, 400 ng/mL LGK974 or combination, 10 days): decreased
- LRP5/6 phosphorylation [4]: could decrease LRP5/6 phosphorylation
- expression of Wnt receptors [5]: partially decrease
- expression of pluripotency factors [6]: decreased pluripotency factor expressions
- induction of apoptosis [7]: did not observe significant effects
- animal survival ([8]; 20 mg/kg EpAb2-6 via tail vein twice a week, 5 mg/kg LGK974 oral gavage on alternating days, four weeks): decreased overall survival
- distant metastases ([8]; autopsies): distinct metastases; also recorded: found to have distant metastases
- body weight after cessation of treatment ([9]; orthotopic model): continued to lose body weight
- median / overall survival ([9]; orthotopic model): low median survival
- body weight during the treatment period ([9]; orthotopic model, 5 mg/kg LGK974): decreased during the treatment period
- tumor progression (bioluminescence) ([9]; orthotopic model, 20 mg/kg EpAb2-6 via tail vein twice a week, 5 mg/kg LGK974 oral gavage on alternating days, four weeks): developed significant tumors
- tumor (cancer) progression in animal models ([9]; summary statement, metastatic and orthotopic animal models of human CRC): did not observe significant effects
- toxicity [10]: non-toxic
